Details: Liquid

CCCCO [butan-1-ol]
Closed cell (Static) method
Details | vapor or sublimation pressure [kPa]
314.19 K | 2.7
323.2 K | 4.49
338.21 K | 10.38
342.17 K | 12.89
352.81 K | 21.44
361.24 K | 31.52
371.94 K | 49.26

CCCCN=C=O [butyl isocyanate]
Details | vapor or sublimation pressure [kPa]
294.15 K | 2.48
323.24 K | 9.52
338.02 K | 17.88
353.02 K | 32.1
362.65 K | 44.82
372.6 K | 61.84
387.87 K | 99.08

CCOC(N)=O [ethyl carbamate]
Closed cell (Static) method
Details | vapor or sublimation pressure [kPa]
322.6 K | 0.88
337.2 K | 1.287
342.3 K | 1.494
352.5 K | 1.957
362.6 K | 2.381
371.7 K | 2.953

CCCCCCCCC [nonane]
Closed cell (Static) method
Details | vapor or sublimation pressure [kPa]
322.59 K | 2.34
338.33 K | 4.99
351.53 K | 9
371.37 K | 19.81
